This is an account of results in patent US7153883B2, “Carboxylic acids and carboxylic acid isosteres of N-heterocyclic compounds” (GPI NIL Holdings Inc., priority 1998, dated 2006).

For this assay, the target named is Rotamase (Homo sapiens, UniProt P62942). The experiment in a line: Rotamase inhibition. The class given is biochemical. Conditions: read-out: K1 Rotamase.
Rotamase, sequence (P62942 2-108 limits assumed): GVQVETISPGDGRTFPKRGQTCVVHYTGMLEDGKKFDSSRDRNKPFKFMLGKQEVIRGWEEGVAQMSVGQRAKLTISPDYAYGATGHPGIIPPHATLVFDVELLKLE

Regarding `CCC(C)(C)C(=O)C(=O)N1CCSC1C(=O)OCCCc1cccnc1` (stereo not shown) [F], the Ki was determined as 272 nM.
